Experimental data from PubChem BioAssay AID248 (DTP/NCI, 2004).
Where “and” joins values, the source holds several entries; their conditions need not be identical. Equal values may be shown once. Toxic doses and inconclusive results are not listed. Cut-off read from the data, not from the text of the source: active = T/C of 150% or more; inactive = T/C below 125%.

Test system: L1210 leukemia ip in BDF1 mice, survival T/C
Experiment: NCI In Vivo Anticancer Drug Screen. Data for tumor model L1210 Leukemia (intraperitoneal) in B6D2F1 (BDF1) mice
Details: endpoint: mean survival time, higher = longer survival
Method in brief: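 Antitumor effect is assessed in tumor-bearing animals. Survival in the compound arm is compared with a vehicle-dosed control arm and expressed as their quotient.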

[1] = dose: 25.0 mg/kg/injection, schedule: Q01DX009 (ip), vehicle: saline with Tween-80
[2] = dose: 100.0 mg/kg/injection, schedule: Q04DX003 (ip), vehicle: saline with Tween-80
[3] = dose: 200.0 mg/kg/injection, schedule: Q04DX003 (ip), vehicle: saline with Tween-80
[4] = dose: 100.0 mg/kg/injection, schedule: Q01DX009 (ip), vehicle: saline
[5] = dose: 200.0 mg/kg/injection, schedule: Q01DX009 (ip), vehicle: saline
[6] = dose: 50.0 mg/kg/injection, schedule: Q01DX009 (ip), vehicle: Klucel (hydroxypropylcellulose) (HPC)
[7] = dose: 100.0 mg/kg/injection, schedule: Q01DX009 (ip), vehicle: Klucel (hydroxypropylcellulose) (HPC)
[8] = dose: 200.0 mg/kg/injection, schedule: Q01DX009 (ip), vehicle: Klucel (hydroxypropylcellulose) (HPC)
[9] = dose: 100.0 mg/kg/injection, schedule: Q04DX003 (ip), vehicle: Klucel (hydroxypropylcellulose) (HPC)
[10] = dose: 200.0 mg/kg/injection, schedule: Q04DX003 (ip), vehicle: Klucel (hydroxypropylcellulose) (HPC)
[11] = dose: 400.0 mg/kg/injection, schedule: Q04DX003 (ip), vehicle: Klucel (hydroxypropylcellulose) (HPC)
[12] = dose: 25.0 mg/kg/injection, schedule: Q01DX009 (ip), vehicle: Klucel (hydroxypropylcellulose) (HPC)
[13] = dose: 100.0 mg/kg/injection, schedule: Q04DX002 (ip), vehicle: Klucel (hydroxypropylcellulose) (HPC)
[14] = dose: 200.0 mg/kg/injection, schedule: Q04DX002 (ip), vehicle: Klucel (hydroxypropylcellulose) (HPC)
[15] = dose: 400.0 mg/kg/injection, schedule: Q04DX002 (ip), vehicle: Klucel (hydroxypropylcellulose) (HPC)
[16] = dose: 100.0 mg/kg/injection, schedule: Q04DX002 (ip), vehicle: saline
[17] = dose: 200.0 mg/kg/injection, schedule: Q04DX002 (ip), vehicle: saline
[18] = dose: 100.0 mg/kg/injection, schedule: Q04DX003 (ip), vehicle: saline
[19] = dose: 200.0 mg/kg/injection, schedule: Q04DX003 (ip), vehicle: saline
[20] = dose: 400.0 mg/kg/injection, schedule: Q04DX003 (ip), vehicle: saline
[21] = dose: 100.0 mg/kg/injection, schedule: Q04DX002 (ip), vehicle: other
[22] = dose: 100.0 mg/kg/injection, schedule: Q04DX003 (ip), vehicle: other
[23] = dose: 200.0 mg/kg/injection, schedule: Q04DX002 (ip), vehicle: other
[24] = dose: 200.0 mg/kg/injection, schedule: Q04DX003 (ip), vehicle: other
[25] = dose: 400.0 mg/kg/injection, schedule: Q04DX002 (ip), vehicle: other
[26] = dose: 400.0 mg/kg/injection, schedule: Q04DX003 (ip), vehicle: other

Measured: T/C

O=C(Nc1ccc(F)c([N+](=O)[O-])c1)Oc1cccnc1
inactive: [1] 97 % of control and 99 % of control | dose: 50.0 mg/kg/injection, schedule: Q01DX009 (ip), vehicle: saline with Tween-80 95 % of control and 96 % of control | dose: 100.0 mg/kg/injection, schedule: Q01DX001 (ip), vehicle: saline with Tween-80 108 % of control | dose: 100.0 mg/kg/injection, schedule: Q04DX002 (ip), vehicle: saline with Tween-80 95 % of control and 100 % of control | [2] 97 % of control | dose: 200.0 mg/kg/injection, schedule: Q01DX001 (ip), vehicle: saline with Tween-80 109 % of control | dose: 200.0 mg/kg/injection, schedule: Q04DX002 (ip), vehicle: saline with Tween-80 104 % of control and 109 % of control | [3] 100 % of control | dose: 400.0 mg/kg/injection, schedule: Q04DX002 (ip), vehicle: saline with Tween-80 102 % of control and 103 % of control

Cc1ccc(NN=Nc2ccccc2C#N)cc1
inactive: dose: 50.0 mg/kg/injection, schedule: Q01DX009 (ip), vehicle: saline 92 % of control | [4] 92 % of control | dose: 100.0 mg/kg/injection, schedule: Q04DX003 (ip), vehicle: acetone 110 % of control | [5] 88 % of control | dose: 200.0 mg/kg/injection, schedule: Q04DX003 (ip), vehicle: acetone 100 % of control | dose: 400.0 mg/kg/injection, schedule: Q04DX003 (ip), vehicle: acetone 103 % of control

CC(=O)OCC1OC(SSC2OC(COC(C)=O)C(OC(C)=O)C(OC(C)=O)C2OC(C)=O)C(OC(C)=O)C(OC(C)=O)C1OC(C)=O (configuration not stated)
inactive: dose: 100.0 mg/kg/injection, schedule: Q01DX001 (ip), vehicle: saline 93 % of control | dose: 200.0 mg/kg/injection, schedule: Q01DX001 (ip), vehicle: saline 95 % of control | dose: 400.0 mg/kg/injection, schedule: Q01DX001 (ip), vehicle: saline 89 % of control

COc1ccc(C=O)cc1OCCOc1cc(C=O)ccc1OC
inactive: [6] 91 % of control | [7] 108 % of control | [8] 94 % of control

CCOC(=O)/C(C#N)=C\C=C\c1ccccc1
inactive: [7] 92 % of control | [9] 96 % of control | [8] 98 % of control | [10] 98 % of control | [11] 102 % of control

Cc1cc(C)c(NC(=O)Nc2cccc3ccccc23)c(C)c1
inactive: [12] 95 % of control | [6] 96 % of control | [7] 96 % of control and 103 % of control | [9] 96 % of control | [8] 92 % of control | [10] 93 % of control | dose: 400.0 mg/kg/injection, schedule: Q01DX009 (ip), vehicle: Klucel (hydroxypropylcellulose) (HPC) 91 % of control | [11] 96 % of control

O=C1C2CC=CCC2C(=O)N1SC(Cl)(Cl)Cl (configuration not stated)
inactive: dose: 0.78 mg/kg/injection, schedule: Q01DX009 (ip), vehicle: saline with Tween-80 107 % of control | dose: 1.56 mg/kg/injection, schedule: Q01DX009 (ip), vehicle: saline with Tween-80 104 % of control | dose: 3.12 mg/kg/injection, schedule: Q01DX009 (ip), vehicle: saline with Tween-80 103 % of control | dose: 6.25 mg/kg/injection, schedule: Q01DX009 (ip), vehicle: saline with Tween-80 103 % of control | dose: 12.5 mg/kg/injection, schedule: Q01DX009 (ip), vehicle: saline with Tween-80 97 % of control | [1] 98 % of control

CC(=O)OC1CCC2(C)C(CCC3C2CCC2(C)C(C(C)C(=O)O)CCC32)C1 (configuration not stated)
inactive: [13] 100 % of control | [2] 104 % of control | [14] 97 % of control | [3] 98 % of control | [15] 94 % of control | dose: 400.0 mg/kg/injection, schedule: Q04DX003 (ip), vehicle: saline with Tween-80 93 % of control

COc1ccc([N+](=O)[O-])cc1NC(=O)CCCCCCCCC(=O)Nc1cc([N+](=O)[O-])ccc1OC
inactive: [16] 102 % of control | [17] 102 % of control | dose: 400.0 mg/kg/injection, schedule: Q04DX002 (ip), vehicle: saline 109 % of control

COc1ccc(Cl)c(C(=O)O)c1
inactive: [13] 114 % of control | [14] 114 % of control | [15] 103 % of control

Cc1cc(C)c(/C=N/O)c(C)c1
inactive: dose: 50.0 mg/kg/injection, schedule: Q01DX009 (ip), vehicle: acetone 93 % of control | dose: 100.0 mg/kg/injection, schedule: Q01DX009 (ip), vehicle: acetone 87 % of control | [18] 102 % of control | [19] 97 % of control | [20] 100 % of control

CC(C)(C)C(C(=O)O)C(=O)O
inactive: dose: 50.0 mg/kg/injection, schedule: Q04DX002 (ip), vehicle: saline 98 % of control | [16] 98 % of control | [17] 92 % of control

CC1=COC(C)(C2NC(C)CC(C)(C)N2)CC1 (configuration not stated)
inactive: dose: 44.0 mg/kg/injection, schedule: Q01DX Z (ip), vehicle: methylcellulose (MC) 100 % of control | dose: 100.0 mg/kg/injection, schedule: Q01DX Z (ip), vehicle: methylcellulose (MC) 95 % of control

Cc1ccc(C(C)C)cc1NC(=O)c1c(Cl)c(Cl)c(Cl)c(Cl)c1C(=O)O
inactive: [12] 108 % of control | [6] 91 % of control | [7] 103 % of control and 90 % of control

C[N+](C)(C)CC(=O)[O-]
inactive: [4] 108 % of control | [18] 103 % of control | [5] 91 % of control | [19] 94 % of control

O=C(Nc1ccccc1C(F)(F)F)OCCSc1ccc(Cl)cc1
inactive: dose: 100.0 mg/kg/injection, schedule: Q01DX009 (ip), vehicle: saline with Tween-80 95 % of control | dose: 200.0 mg/kg/injection, schedule: Q01DX009 (ip), vehicle: saline with Tween-80 95 % of control | dose: 400.0 mg/kg/injection, schedule: Q01DX009 (ip), vehicle: saline with Tween-80 93 % of control

O=C1c2ccccc2-c2c(O)cccc21
inactive: dose: 100.0 mg/kg/injection, schedule: Q01DX001 (ip), vehicle: Klucel (hydroxypropylcellulose) (HPC) 94 % of control | dose: 200.0 mg/kg/injection, schedule: Q01DX001 (ip), vehicle: Klucel (hydroxypropylcellulose) (HPC) 100 % of control | dose: 400.0 mg/kg/injection, schedule: Q01DX001 (ip), vehicle: Klucel (hydroxypropylcellulose) (HPC) 96 % of control

C=CCc1cc(OC)cc(C(=O)c2cccc(OC)c2C#N)c1OC
inactive: dose: 100.0 mg/kg/injection, schedule: Q01DX001 (ip), vehicle: other 104 % of control and 106 % of control | [21] 104 % of control | [22] 100 % of control and 92 % of control | dose: 200.0 mg/kg/injection, schedule: Q01DX001 (ip), vehicle: other 95 % of control and 107 % of control | [23] 100 % of control and 92 % of control | [24] 100 % of control and 92 % of control | dose: 400.0 mg/kg/injection, schedule: Q01DX001 (ip), vehicle: other 118 % of control and 90 % of control | [25] 88 % of control and 89 % of control | [26] 102 % of control and 92 % of control

CCOC(=O)NC(=O)C1C2CC3OC(=O)C1C3C2 (configuration not stated)
inactive: [18] 102 % of control | [19] 102 % of control | [20] 98 % of control

COc1ccc(OC)c(N)c1
inactive: [12] 88 % of control | [6] 93 % of control | [7] 93 % of control

O=C(Nc1ccc(Cl)cc1)SCCSC(=O)Nc1ccc(Cl)cc1
inactive: [21] 97 % of control and 101 % of control | [22] 98 % of control and 105 % of control | [23] 93 % of control and 101 % of control | [24] 94 % of control and 89 % of control | [25] 95 % of control and 90 % of control | [26] 95 % of control and 91 % of control

CS(=O)(=O)N(CC(=O)O)Cc1cccc(Cl)c1
inactive: dose: 100.0 mg/kg/injection, schedule: Q01DX009 (ip), vehicle: other 100 % of control | [22] 100 % of control | dose: 200.0 mg/kg/injection, schedule: Q01DX009 (ip), vehicle: other 101 % of control | [24] 102 % of control | dose: 400.0 mg/kg/injection, schedule: Q01DX009 (ip), vehicle: other 97 % of control | [26] 103 % of control
